These results are taken from paper PMC9598407, “Identification of Staphylococcus aureus Penicillin Binding Protein 4 (PBP4) Inhibitors” (Antibiotics, 2022).

Assay [1] deals with S. aureus strain CRB∆pbp4. The assay is described as follows: Fractional inhibitory concentration checkerboard, ceftobiprole + putative PBP4 inhibitor, strain CRB∆pbp4. The format is cell-based, Staphylococcus aureus. The settings on record: Staphylococcus aureus, read-out: CRB∆pbp4 Alone BPR (ceftobiprole MIC alone).
For assay [2], the system named is S. aureus CRB. The assay is described as follows: MIC testing, strain CRB (PBP4 overproducer). Type of assay: cell-based, Staphylococcus aureus. The settings on record: for MIC: Staphylococcus aureus, read-out: Minimum inhibitory concentration, strain CRB. On the procedure: (§1) To further evaluate their potential PBP4 inhibitor activity, prioritized compounds were tested for their ability to reverse PBP4 mediated antibiotic resistance in another S. aureus background using three isogenic strains that became available during our study (generous gift from Dr. S. Chatterjee; University of Maryland). These strains included: (1) COLnex, which is a methicillin susceptible strain, (2) CRB, a methicillin/ceftobiprole-resistant strain of COLnex that overproduces PBP4, and (3) CRB∆pbp4, a methicillin susceptible strain of CRB lacking the pbp4 gene.
(§2) S. aureus strain USA300 is a predominant cause of U.S. community-associated MRSA infections, whereas strain COL is a commonly studied hospital-associated MRSA strain. The S. aureus USA300 pbp4-null strain (USA300Δpbp4) and PBP4 complementation strain (USA300∆pbp4 pPBP4) have been previously described. Strain COLn is a laboratory derived tetracycline susceptible derivative of COL, whereas COLnex is a methicillin susceptible COLn derivative that has been cured of SCCmec thereby removing the mecA, which encodes PBP2a, and has been previously described. Strain CRB is a well-studied MRSA COLnex derivative that contains two amino acid substitutions (E183A and F241R) near the PBP4 active site and a 36-bp duplication 290-bp upstream of the pbp4 open reading frame leading to 20–40-fold overexpression of the gene. All strains were grown in Mueller Hinton (MH) broth at 37 °C, as indicated. Penicillin, streptomycin, ciprofloxacin, mupirocin, meropenem, and mitomycin C were purchased from Fisher Scientific (Waltham, MA, USA), whereas ceftobiprole was obtained from MedChemExpress LLC (Monmouth Junction, NJ, USA). The 30,000-member […]-EXP small molecule chemical library (Blocks 3–5) used in these studies was purchased from ChemBridge Corporation (San Diego, CA, USA).

For assay [3], the system named is S. aureus CRB∆pbp4. The assay is described as follows: MIC testing, strain CRB∆pbp4. The format is cell-based. The conditions noted are these: Staphylococcus aureus, read-out: Minimum inhibitory concentration. As to the method: as §1, §2
In assay [4] the test system is S. aureus strain USA300. The assay is described as follows: microbe, parasite or virus in culture. The format is cell-based. The settings on record: Staphylococcus aureus, USA300, read-out: Ceftobiprole resistance (MIC) without compound. As to the method:
(§3) Fractional inhibitory testing was performed in checkerboard format to determine whether putative PBP4 inhibitors potentiated the antimicrobial effects of β-lactams toward S. aureus strains USA300 and CRB, as previously described. To do so, in triplicate 10^5 CFU of each strain (10 µL) was added to individual wells of a microtiter plate containing 90 µL MH media. […] Plates were incubated at 37 °C for 16–20 h and the lowest concentration of each test agent that inhibited bacterial growth alone or in combination was determined by the naked eye. The fractional inhibitory concentration (FIC) index was calculated using the formula: FIC of A (MIC of drug A in combination/MIC of drug A alone) + FIC B ([…]/MIC of drug B alone). A synergistic interaction was defined as a FICI value of less than 0.5, an additive interaction was defined as a FICI value between 0.5 and 1.0, an indifferent interaction was defined as a FICI value between 1.0 and 4.0, and an antagonistic interaction was defined as a FICI value of more than 4.0 [46].

The subject of assay [5] is S. aureus USA300∆pbp4. The assay is described as follows: MIC testing, strain USA300∆pbp4. The format is cell-based, Staphylococcus aureus. The settings on record: Staphylococcus aureus, USA300, read-out: Minimum inhibitory concentration. On the procedure:
(§4) The approach used was to initially search for compounds that reverse the antibiotic resistance profile of wild type cells to that of a pbp4 mutant. To define screening conditions three strains were employed, a wild type USA300 MRSA strain, an isogenic pbp4 deletion strain, and a complemented strain harboring a plasmid wildtype pbp4 copy. The antibiotic susceptibility profile of each strain was measured to determine the magnitude with which PBP4 affects resistance to various antibiotics (Table 1). […]. We anticipated that the greater dynamic range of the latter could provide a means to reliably screen for agents that inhibit PBP4 function. […].
as §2

Assay [6] has as its system S. aureus USA300∆pbp4 pPBP4. The assay is described as follows: microbe, parasite or virus in culture. The format is cell-based. The settings on record: Staphylococcus aureus, USA300, read-out: Minimum inhibitory concentration.
Assay [7] concerns S. aureus strain CRB. The assay is described as follows: Fractional inhibitory concentration checkerboard, ceftobiprole + putative PBP4 inhibitor, strain CRB. The format is cell-based, Staphylococcus aureus. The conditions noted are these: Staphylococcus aureus, read-out: CRB Alone BPR (ceftobiprole MIC alone). As to the method:
as §3

The test system of assay [8] is S. aureus USA300. The assay is described as follows: Minimum inhibitory concentration (MIC) testing, strain USA300. Type of assay: cell-based, Staphylococcus aureus. The settings on record: for MIC: Staphylococcus aureus, USA300, read-out: Minimum inhibitory concentration. On the procedure: as §4, §2
For assay [9], the system named is S. aureus COLnex. The assay is described as follows: MIC testing, strain COLnex. Type of assay: cell-based. The settings on record: Staphylococcus aureus, read-out: Minimum inhibitory concentration. As to the method: as §1, §2

Molecules are shown by their SMILES. Converted amounts (≈) assume the structure as drawn.

`Nc1nc(/C(=N/O)C(=O)N[C@@H]2C(=O)N3C(C(=O)O)=C(/C=C4\CCN([C@@H]5CCNC5)C4=O)CS[C@H]23)ns1` [BPR, ceftobiprole]: the MIC in assay [1] came to 0.25 mg/L; in [2], 128 mg/L (≈ 239 µM); in assay [3], 0.25 mg/L (≈ 0.468 µM); in assay [4] it was 1 mg/L; in assay [5], 0.25 mg/L (≈ 0.468 µM); in [6] it was 0.5 mg/L (≈ 0.935 µM). Moreover, the results for the MIC in assay [7], in [8] and in assay [9] were 128 mg/L, 0.5 mg/L (≈ 0.935 µM) and 0.25 mg/L (≈ 0.468 µM), respectively. For the same compound, the “Fold difference in ceftobiprole resistance” value in [2] (PBP4-overexpressor CRB versus CRB∆pbp4) came to 512 fold.
Take `C/C(=C\C(=O)OCCCCCCCCC(=O)O)C[C@@H]1OC[C@H](C[C@@H]2O[C@H]2[C@@H](C)[C@H](C)O)[C@@H](O)[C@H]1O` [MUP, mupirocin]: the MIC in assay [2] was 0.03 mg/L (≈ 0.0599 µM); in [3], 0.03 mg/L (≈ 0.0599 µM); in [5] it was 0.125 mg/L (≈ 0.25 µM); in assay [6] it was 0.125 mg/L (≈ 0.25 µM); in assay [8], 0.125 mg/L (≈ 0.25 µM); in assay [9], 0.03 mg/L (≈ 0.0599 µM).
`CCOc1ccc2ccccc2c1C(=O)N[C@@H]1C(=O)N2[C@@H]1SC(C)(C)[C@@H]2C(=O)O` [NAF, nafcillin]: the MIC was above 128 mg/L in assay [2]; 0.25 mg/L (≈ 0.603 µM) in assay [3]; 4 mg/L (≈ 9.65 µM) in assay [5]; 8 mg/L (≈ 19.3 µM) in [6]; 8 mg/L (≈ 19.3 µM) in assay [8]; 0.25 mg/L (≈ 0.603 µM) in assay [9]. Moreover, the “Fold increase in resistance provided by PBP4” value in assay [8] (USA300 versus USA300∆pbp4 MIC) turned out to be 2 fold. Moreover, the Minimum inhibitory concentration in [8] (strain USA300) amounted to 8 mg/L (≈ 19.3 µM).
With `NC[C@H]1O[C@H](O[C@H]2[C@H](O)[C@@H](O[C@H]3O[C@H](CO)[C@@H](O)[C@H](N)[C@H]3O)[C@H](N)C[C@@H]2N)[C@H](N)C[C@@H]1O` [TOB, tobramycin], the MIC amounted to 0.06 mg/L (≈ 0.128 µM) in assay [2]; 0.06 mg/L (≈ 0.128 µM) in assay [3]; 1 mg/L (≈ 2.14 µM) in [5]; 1 mg/L (≈ 2.14 µM) in assay [6]; 1 mg/L (≈ 2.14 µM) in assay [8]; 0.06 mg/L (≈ 0.128 µM) in [9].
